Assay results taken from patent EP4613273A1, “TREATMENT OF BONE LOSS” (priority 2024, dated 2025).
Structures can show the parent of a compound that is named as a salt.

Assays:
[1] = Plasma pharmacokinetic of MIV-701 after single and repeated oral administration of MIV-701 besylate salt in healthy beagle dogs; format: in vivo; conditions: for Cmax at 312 h / Tmax at 312 h / AUC(0-inf) at 312 h / AUC(0-t) at 312 h / half-life at 312 h / Cmax at 0 h / Tmax at 0 h / AUC(0-inf) / AUC(0-t) / half-life: dog; for AUC(0-inf) at 312 h / AUC(0-inf): read-out: AUC(0-infini) (converted); for AUC(0-t) at 312 h / AUC(0-t): read-out: AUC(0-tfinal) (converted); for half-life at 312 h / half-life: read-out: T1/2 elimination (converted)
Method: Compound Ib besylate salt (referred to as MIV-701 besylate salt) was administered once daily for 14 days to 3 healthy beagle dogs at three different doses: 1 mg/kg, 10 mg/kg and 100 mg/kg.
The doses were consecutively administered for 14 days with a >5-day washout period between two dose levels.
Each treatment period can be resumed as follows: • J0 (T+24h): first Compound Ib besylate salt administration, withdrawal of blood samples for pharmacokinetic and plasma CTX-1 assessment (pre-dose and 0.5h, 1h, 2h, 4h, 8h and 24h after drug administration), pre-dose blood samples for hematology and clinical biochemistry (baseline values for safety assessment). • J1 to J12: pre-dose blood samples • J13: last Compound Ib besylate salt administration, withdrawal of plasma samples for pharmacokinetic and plasma CTX-1 assessment (pre-dose and 0.5h, 1h, 2h, 4h, 8h and 24h after drug administration), pre-dose sampling for hematology and clinical biochemistry (baseline values for safety assessment). • J15-J≥19: washout period.
After centrifugation of blood samples plasma aliquots were stored at -20°C. After thawing on ice, 30 µL of plasma were transferred into 1.5 ml microtube containing 270 µL acetonitrile. Microtubes were then vigorously stirred and then centrifuged (12000 rpm, 10 min, 4°C) and the supernatant was transferred in Matrix tube for LC-MS/MS analysis. Calibration curve (9 points, 3 to 30 000 nM) was obtained by spiking plasma samples from naive dogs with appropriate quantities of Compound Ib.
(§1) Equipment: LC-MS/MS Acquity I Class-Wevo TQD (Waters®): - Acquity I Class ∘ Column: Waters® Acquity BEH C8, 50*2.1mm, 1.7 µm (40°C) ∘ Mobile phase: • ▪ A: Ammonium Formate 5mM, pH=3.8 • ▪ B: Ammonimuformate 5 mM in CH3CN 5% aqueous, pH=3.8 ∘ Injection volume: 1 µL ∘ Speed: 600 µL/min ∘ Gradient: […]
- Xevo TQD ∘ Source temperature: 150°C ∘ Desolvatation temperature: 600°C ∘ Cone gaz speed: 50L/h ∘ Desolvatation gaz speed: 1200L/h - Analytes MS characteristics
(§2) Terminal elimination half-life (t1/2) was calculated according to the following formula: T1/2 elimination = ln(2)/kel [formula] kel= slope of ln(C)=f(temps) calculated on the last points of the curves (elimination phase)/ MIV-701 exposure (Area Under the Curve; AUCt) was calculated according to trapezoidal method according to the following formula: AUCt−>inf = [C]t /kel [formula]

[2] = Plasma pharmacokinetic of MIV-701 after single and repeated oral administration of MIV-701 besylate salt in healthy cats; format: in vivo; conditions: for Cmax at 312 h / Tmax at 312 h / AUC(0-inf) at 312 h / AUC(0-t) at 312 h / half-life at 312 h / Cmax / Tmax at 0 h / AUC(0-inf) / AUC(0-t) / half-life: cat; for AUC(0-inf) at 312 h / AUC(0-inf): read-out: AUC(0-infini) (converted); for AUC(0-t) at 312 h / AUC(0-t): read-out: AUC(0-tfinal) (converted); for half-life at 312 h / half-life: read-out: T1/2 elimination (converted)
Method: MIV-701 besylate salt was administered once daily for 14 days to 4 healthy cats at three increasing doses: 2 mg/kg, 10 mg/kg and 50 mg/kg.
The three doses were consecutively administered for 14 days with a >5-day washout period between two dose levels.
Each treatment period can be resumed as follows: • J0 (T+24h): first administration, withdrawal of blood samples for pharmacokinetic and plasma CTX-1 assessment (pre-dose and 0.5h, 1h, 2h, 4h, 8h and 24h after first drug administration), pre-dose blood samples for hematology and clinical biochemistry (baseline values for safety assessment). • J5 ([…]) and J8: pre-dose blood samples. • J13: last administration, withdrawal of plasma samples for pharmacokinetic and plasma CTX-1 assessment (pre-dose and 0.5h, 1h, 2h, 4h, 8h and 24h after last drug administration), pre-dose sampling for hematology and clinical biochemistry (baseline values for safety assessment). • J15 to J≥19: washout period.
After centrifugation of blood samples plasma aliquots were stored at -20°C._After thawing on ice, 30 µL of plasma were transferred into 1.5 ml microtube containing 270 µL acetonitrile. Microtubes were then vigorously stirred and then centrifuged (12000 rpm, 10 min, 4°C) and the supernatant was transferred in Matrix tube for LC-MS/MS analysis.
A calibration curve (9 points, 3 to 30 000 nM) was obtained by spiking plasma samples from naive cats with appropriate quantities of Compound I.
as §1
- Xevo TQD • ∘ Source temperature: 150°C • ∘ Desolvatation temperature: 600°C • ∘ Cone gaz speed: 50L/h • ∘ Desolvatation gaz speed: 1200L/h - Analytes MS characteristics
as §2, with “method accroding” for “method according”

[3] = plasma MIV-701, oral 1 mg/kg once daily, Day 13 (repeated)
[4] = plasma MIV-701, oral 1 mg/kg, Day 0 (single)
[5] = plasma MIV-701, oral 10 mg/kg once daily, Day 13 (repeated)
[6] = plasma MIV-701, oral 10 mg/kg, Day 0 (single)
[7] = plasma MIV-701, oral 100 mg/kg once daily, Day 13 (repeated)
[8] = plasma MIV-701, oral 100 mg/kg, Day 0 (single)
[9] = plasma MIV-701, oral 2 mg/kg once daily, Day 13 (repeated)
[10] = plasma MIV-701, oral 2 mg/kg, Day 0 (single)
[11] = plasma MIV-701, oral 50 mg/kg, Day 0 (single)

## CC(C)C[C@H](NC(=O)c1ccc(-c2csc(N3CCN(C)CC3)n2)cc1)C(=O)N1C[C@H](F)[C@H]2OCC(O)(O)[C@H]21 [MIV-701 besylate salt, N-[(S)-1-((3aS,6S,6aS)-6-Fluoro-S-oxo-hexahydro-furo[3,2-b]pyrrole-4-carbony)-3-methyl-butyl]-4-[2-(4-methyl-piperazin-1-yl)-thiazol-4-yl]-benzamide benzenesulphonate]
[1]; 14-day repeated oral administration, three doses
  plasma accumulation of MIV-701 (Cmax, AUCs D13 vs D0): did not show plasma accumulation
[1]; [3]
  Cmax at 312 h: 6.6 nM
  Tmax at 312 h: 2 h
  AUC(0-inf) at 312 h: 0.083 µM·h
  AUC(0-t) at 312 h: 0.036 µM·h
  half-life at 312 h: 8.6 h
  Kel (2-8h): -0.080 h⁻¹
[1]; [4]
  Cmax at 0 h: 20 nM
  Tmax at 0 h: 0.5 h
  AUC(0-inf): 0.0488 µM·h
  AUC(0-t): 0.0429 µM·h
  half-life: 2.9 h
  Kel (2-8h): -0.236 h⁻¹
[1]; [5]
  Cmax at 312 h: 130 nM
  Tmax at 312 h: 4 h
  AUC(0-inf) at 312 h: 1.91 µM·h
  AUC(0-t) at 312 h: 1.84 µM·h
  half-life at 312 h: 4.9 h
  Kel (4-24h): -0.142 h⁻¹
[1]; [6]
  Cmax at 0 h: 139 nM
  Tmax at 0 h: 1 h
  AUC(0-inf): 1.38 µM·h
  AUC(0-t): 1.35 µM·h
  half-life: 4.1 h
  Kel (8-24h): -0.167 h⁻¹
[1]; [7]
  Cmax at 312 h: 1620 nM
  Tmax at 312 h: 1 h
  AUC(0-inf) at 312 h: 21.4 µM·h
  AUC(0-t) at 312 h: 20.7 µM·h
  half-life at 312 h: 4.8 h
  Kel (4-24h): -0.144 h⁻¹
[1]; [8]
  Cmax at 0 h: 1280 nM
  Tmax at 0 h: 8 h
  AUC(0-inf): 19.9 µM·h
  AUC(0-t): 19.4 µM·h
  half-life: 4 h
  Kel (8-24h): -0.174 h⁻¹
[2]; 2 mg/kg
  plasma exposure (AUC) at D13 higher than AUC at D0: 1.2 folds
[2]; 10 mg/kg
  plasma exposure (AUC) at D13 higher than AUC at D0: 1.9 folds
[2]; [9]
  Cmax at 312 h: 141 nM
  Tmax at 312 h: 2 h
  AUC(0-inf) at 312 h: 0.984 µM·h
  AUC(0-t) at 312 h: 0.972 µM·h
  half-life at 312 h: 3.9 h
  Kel (4-24h): -0.179 h⁻¹
[2]; [10]
  Cmax: 122 nM
  Tmax at 0 h: 2 h
  AUC(0-inf): 0.811 µM·h
  AUC(0-t): 0.808 µM·h
  half-life: 2.9 h
  Kel (4-24h): -0.236 h⁻¹
[2]; [5]
  Cmax at 312 h: 663 nM
  Tmax at 312 h: 0.5 h
  AUC(0-inf) at 312 h: 5.3 µM·h
  AUC(0-t) at 312 h: 5.07 µM·h
  half-life at 312 h: 5.7 h
  Kel (4-24h): -0.122 h⁻¹
[2]; [6]
  Cmax: 249 nM
  Tmax at 0 h: 2 h
  AUC(0-inf): 2.85 µM·h
  AUC(0-t): 2.78 µM·h
  half-life: 4.6 h
  Kel (4-24h): -0.152 h⁻¹
[2]; [11]
  Cmax: 3890 nM
  Tmax at 0 h: 2 h
  AUC(0-inf): 34.8 µM·h
  AUC(0-t): 33.6 µM·h
  half-life: 4.9 h
  Kel (4-24h): -0.142 h⁻¹
